# Test results published in US20230227435A1, “SMALL MOLECULE MODULATORS OF IL-17” (LEO PHARMA A/S, priority 2020, published 2023).
# Target: T1, human IL-17AA (Homo sapiens, UniProt Q16552)
# T1 construct: host or cells: HEK (human embryonic kidney) cells
# T1 sequence (Q16552 24-155) 1: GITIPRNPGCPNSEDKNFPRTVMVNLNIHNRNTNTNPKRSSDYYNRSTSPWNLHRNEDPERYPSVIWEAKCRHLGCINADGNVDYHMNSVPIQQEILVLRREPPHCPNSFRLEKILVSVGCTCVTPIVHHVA
# T1 sequence (Q16552 24-155) 2: T1 sequence (Q16552 24-155) 1
# Test: IL-8 release assay in human epithelial keratinocytes adult (HEKa)
# Format: cell-based
# Conditions: HEKa cells; 3 ng/mL HEK-human IL-17AA + 10 ng/mL human TNFalpha; 68-72 hours; IL-8 by HTRF; read-out: Rel EC50 IL-8 release assay
# Method in brief: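 Adult human epidermal keratinocytes treated with compound, then stimulated 68-72 h at 37 °C with HEK-derived human IL-17AA 3 ng/mL plus TNF-alpha 10 ng/mL (final); TNF-alpha alone defined 100% inhibition. Secreted IL-8 measured by HTRF (665/620 nm) as percent of controls; relative IC50 and Emax from four-parameter fits.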
row,EC50 [nM],SMILES
1,310,"Cc1n[nH]c(C)c1-c1ccc(NC(=O)C(c2nnc(-c3ccccn3)[nH]2)C(C2CC2)C2CC2)cc1 (stereo not drawn) [Example 58, 3,3-dicyclopropyl-N-[4-(3,5-dimethyl-1H-pyrazol-4-yl)phenyl]-2-[5-(2-pyridyl)-4H-1,2,4-triazol-3-yl]propanamide]"
2,45,"Cc1cccc(-c2nnc(C(C(=O)Nc3ccc(-c4c(C)n[nH]c4C)cc3)C(C3CC3)C3CC3)[nH]2)n1 (stereo not drawn) [Example 59, 3,3-dicyclopropyl-N-[4-(3,5-dimethyl-1H-pyrazol-4-yl)phenyl]-2-[5-(6-methyl-2-pyridyl)-4H-1,2,4-triazol-3-yl]propanamide]"
3,250,"Cc1cccnc1-c1nnc(C(C(=O)Nc2ccc(-c3c(C)n[nH]c3C)cc2)C(C2CC2)C2CC2)[nH]1 (stereo not drawn) [Example 60, 3,3-dicyclopropyl-N-[4-(3,5-dimethyl-1H-pyrazol-4-yl)phenyl]-2-[5-(3-methyl-2-pyridyl)-4H-1,2,4-triazol-3-yl]propanamide]"
4,2700,"Cc1n[nH]c(C)c1-c1ccc(NC(=O)C(c2nnc(C3CCOCC3)[nH]2)C(C2CC2)C2CC2)cc1 (stereo not drawn) [Example 61, 3,3-dicyclopropyl-N-[4-(3,5-dimethyl-1H-pyrazol-4-yl)phenyl]-2-(5-tetrahydropyran-4-yl-4H-1,2,4-triazol-3-yl)propanamide]"
5,1600,"Cc1n[nH]c(C)c1-c1ccc(NC(=O)C(c2nnc(C3CCOC3)[nH]2)C(C2CC2)C2CC2)cc1 (stereo not drawn) [Example 62, 3,3-dicyclopropyl-N-[4-(3,5-dimethyl-1H-pyrazol-4-yl)phenyl]-2-(5-tetrahydrofuran-3-yl-4H-1,2,4-triazol-3-yl)propanamide]"
6,200,"Cc1n[nH]c(C)c1-c1ccc(NC(=O)C(c2nnc(-c3ccnc(C(F)F)c3)[nH]2)C2CCC(F)(F)CC2)cc1 (stereo not drawn) [Example 63, 2-(4,4-difluorocyclohexyl)-2-[5-[2-(difluoromethyl)-4-pyridyl]-4H-1,2,4-triazol-3-yl]-N-[4-(3,5-dimethyl-1H-pyrazol-4-yl)phenyl]acetamide]"
7,520,"Cc1cc(-c2nnc(C(C(=O)Nc3ccc(-c4c(C)n[nH]c4C)cc3)C3CCC(F)(F)CC3)[nH]2)ccn1 (stereo not drawn) [Example 65, 2-(4,4-difluorocyclohexyl)-N-[4-(3,5-dimethyl-1H-pyrazol-4-yl)phenyl]-2-[5-(2-methyl-4-pyridyl)-4H-1,2,4-triazol-3-yl]acetamide]"
8,640,"COc1cc(-c2nnc(C(C(=O)Nc3ccc(-c4c(C)n[nH]c4C)cc3)C3CCC(F)(F)CC3)[nH]2)ccn1 (stereo not drawn) [Example 66, 2-(4,4-difluorocyclohexyl)-N-[4-(3,5-dimethyl-1H-pyrazol-4-yl)phenyl]-2-[5-(2-methoxy-4-pyridyl)-4H-1,2,4-triazol-3-yl]acetamide]"
9,210,"CCn1nccc1-c1cnc(C(C(=O)Nc2ccc(-c3c(C)n[nH]c3C)cc2)C(C2CC2)C2CC2)[nH]1 (stereo not drawn) [Example 67, 3,3-dicyclopropyl-N-[4-(3,5-dimethyl-1H-pyrazol-4-yl)phenyl]-2-[5-(2-ethylpyrazol-3-yl)-1H-imidazol-2-yl]propanamide]"
10,170,"Cc1n[nH]c(C)c1-c1ccc(NC(=O)C(c2ncc(-c3ccnn3C(C)C)[nH]2)C(C2CC2)C2CC2)cc1 (stereo not drawn) [Example 68, 3,3-dicyclopropyl-N-[4-(3,5-dimethyl-1H-pyrazol-4-yl)phenyl]-2-[5-(2-isopropylpyrazol-3-yl)-1H-imidazol-2-yl]propanamide]"
11,490,"COc1cc(-c2cnc(C(C(=O)Nc3ccc(-c4c(C)n[nH]c4C)cc3)C(C3CC3)C3CC3)[nH]2)ccn1 (stereo not drawn) [Example 69, 3,3-dicyclopropyl-N-[4-(3,5-dimethyl-1H-pyrazol-4-yl)phenyl]-2-[5-(2-methoxy-4-pyridyl)-1H-imidazol-2-yl]propanamide]"
12,260,"Cc1n[nH]c(C)c1-c1ccc(NC(=O)C(c2nc(F)c(-c3ccccc3)[nH]2)C(C2CC2)C2CC2)cc1 (stereo not drawn) [Example 72, 3,3-dicyclopropyl-N-[4-(3,5-dimethyl-1H-pyrazol-4-yl)phenyl]-2-(4-fluoro-5-phenyl-1H-imidazol-2-yl)propanamide]"
